Measured values as given in patent publication US10761001B2, “Devices and methods for tension measurements and applications of same” (Vanderbilt University, priority 2016, dated 2020).
“Also recorded” adds a separate entry of the source.

Tests used:
isolated mice CMs = conditions: after application of blebbistatin; cited from earlier work
[1] = system: engineered cardiac tissue construct (ECTC) from neonatal rat ventricular cells; assay: I-Wire ECTC elasticity measurement (stretch-stress curve, Young's modulus); format: cell-based
Experimental: (§1) Method step 2. Cell isolation and culturing: Neonatal rat ventricular cells were obtained from 2-day-old neonatal Sprague-Dawley rats using a trypsin digestion protocol with agitation overnight at 4° C. and plating cells for 40 minutes at 37° C. The population of isolated cells is heterogeneous and besides cardiomyocytes includes cardiofibroblasts, endothelial cells, and vascular smooth muscle cells. The presence of the different cell types is important for formation of the extracellular matrix and tissue structure. The isolated cells were mixed with fibrinogen (5 mg/mL, Sigma-Aldrich, St. Louis, Mo., USA)/Matrigel™ (100 μL/mL, BD Biosciences, San Jose, Calif., USA) plus thrombin (15 μL, 100 U/mL, Sigma-Aldrich, St. Louis, Mo., USA), and pipetted in a casting mold (FIG. 21A). Thereafter, cells were kept at 37° C. in a 5% CO2 humidified cell culture incubator for 1 hour. When fibrinogen was polymerized, 2 mL of cell culture media was added per well. The culture medium consisted of DMEM (Gibco Fisher Scientific, Waltham, Mass., USA), 10% horse serum (Gibco Fisher Scientific, Waltham, Mass., USA), 2% chick embryo extract (US Biological Fisher Scientific, Waltham, Mass., USA), 1% penicillin/streptomycin (Gibco Fisher Scientific, Waltham, Mass., USA), 10 μg/mL insulin (Sigma-Aldrich, St. Louis, Mo., USA), 400 μM tranexamic acid (Sigma-Aldrich, St. Louis, Mo., USA), and 33 μg/mL aprotinin (Sigma-Aldrich, St. Louis, Mo., USA). Over time, the preparation condensed to form elongated muscle fibers of 350-400 μm in diameter and 7 mm long. After 13-15 days of culturing, the contractility and stiffness of the ECTC (FIGS. 21B and 21C) could be measured using our microscope-based optical setup (FIG. 3A).
Method step 3. […]
At first, the linear part of the ECTC stretch-force curve was fitted using a linear equation and the amount of change of ECTC length was calculated. […]

[2] = system: engineered cardiac tissue construct (ECTC) from neonatal rat ventricular cells; assay: I-Wire ECTC contractility under β-adrenergic stimulation; format: cell-based
Experimental: as §1
Method step 3. Registration system for the contraction recording: To apply tensional force to the ECTC and detect contraction, a flexible PEEK tube of 365 μm in outer diameter and 120 μm bore (Putnam Plastics, Dayville, Conn., USA) and 28 mm length was glued to a Plexiglas cantilever adjuster attached to a cantilever support plate with two embedded position-control magnets (FIG. 3A). The stiffness of the probe was roughly matched to that of the ECTC; one might choose to use either a softer or stiffer probe to study ECTCs with different mechanical properties. The cantilever support plate with cantilever adjuster and flexible probe was mounted with a friction fit to the condenser of the inverted optical microscope (Eclipse Ti, Nikon, Melville, N.Y., USA) equipped with a digital camera system (Zyla sCMOS Camera, Andor Technology, Belfast, Northern Ireland). […]
Method step 4. Registration of action potential and reconstruction of electrical and mechanical restitution: Action potentials were recorded by utilizing floating micropipettes filled with 3-M KCl. […]

Compound | lowering of the diastolic stress (isolated mice CMs) [%] | decrease of ECTC stiffness ([1]; 6 μM blebbistatin) [%] | Young's modulus of the ECTC ([1]; 6 μM blebbistatin, untreated (relaxation) 13.4±2.5 kPa, N=5, P<0.05) [kPa] | slope of the fitted straight line of the stretch-stress curve ([1]; blebbistatin-treated ECTCs, 6 μM, systolic 4.9, diastolic 15.1 %/mN) [%/mN] | contraction duration ([2]; 1 μM isoproterenol (β-adrenergic stimulation)) | contraction velocity ([2]; 1 μM isoproterenol, applied force exceeded 0.233 mN, P<0.05, N=7) | developed force ([2]; 1 μM isoproterenol, applied transverse forces greater than 0.156 mN, P<0.05, N=7) | force exerted by the ECTC during contraction and relaxation ([2]; 1 μM isoproterenol, separate analysis of systole and diastole)
Cc1ccc2c(c1)C(=O)C1(O)CCN(c3ccccc3)C1=N2 (centres unmarked) [blebbistatin] | 30 | 23 | 10.3±2.8 | 17.5 | – | – | – | –
CC(C)NCC(O)c1ccc(O)c(O)c1 (centres unmarked) [isoproterenol] | – | – | – | – | shortening | statistically significant acceleration | significant increase | significant change occurs only in the phase of relaxation; also recorded: significant effect of the isoproterenol only during the diastolic phase
